What all share (format): in vivo, mouse
The subject of data set [1] is Balb/C mice. Put plainly: Dextran sodium sulfate (DSS)-induced ulcerative colitis. Conditions: for pro-inflammatory genes overexpressed in DSS-induced ulcerative colitis (IL-1β, IL-6, IL-17a, IL-17f, TSLP, MMP13): colon, q-RT-PCR, D14; for colonic villus/crypt structure / mucosal and submucosal cell infiltration: i.p. 1 mg/kg on D11, D12, D13, H&E histology. The protocol: To investigate the anti-inflammatory activity of CpdX and CpdX-D3 on a Th17 ulcerative colitis, Balb/C mice were treated with 3% DSS in drinking water for 13 days, with or without an intraperitoneal administration of either Dex, CpdX, CpdX(eA), CpdX(eB), CpdX-D3, CpdX-D3(eA) or CpdX-D3(eB) (1 mg/kg of body weight) on D11, D12 and D13.
At D14, RNA transcripts were extracted from mouse colons. IL-1β, IL-6, IL-17a, IL-17f, TSLP and MMP13 transcripts were analyzed by q-RT-PCR. Colon samples were also harvested for histological analyses (with H&E staining).

In data set [2] the test system is B6 male mice. As to the kind of experiment: Insulin level, insulin tolerance test and liver insulin signalling after three-month treatment. Conditions: for insulin resistance: three months, conclusion. The procedure: B6 male mice (8-week-old) were subjected daily for three months to a subcutaneous injection of either vehicle (NaCl 0.9%), Dex, CpdX, CpdX(eA), CpdX(eB), CpdX-D3, CpdX-D3(eA) or CpdX-D3(eB) (1 mg/kg body weight, diluted in vehicle). After three months, the blood was collected at 10 a.m. by retro-orbital puncture in lithium-heparin coated vials, and the plasmatic level of insulin was determined.
For the intraperitoneal insulin tolerance test (IPITT), mice were fasted for 6 hours before test. The blood glucose concentration was measured both before (T0) and during a one-hour period after insulin i.p. injection (0.75 U/kg body weight).
Following this three-month treatment, liver samples were harvested and lysed in the RIPA buffer (20 mM Tris pH 8, 150 mM NaCl, 10% glycerol, 1% NP-40 and 2 mM EDTA). Antibodies from Cell Signaling were used to assess by Western-Blotting the relative level of p-IRS1 (S318), IRS-1, p-AKT (S473) and AKT.

For data set [3], the system named is B6 male mice. As to the kind of experiment: Organ weights (thymus, spleen, adrenal gland, kidney) after three-month treatment. Conditions: s.c. 1 mg/kg daily, three months. The protocol:
B6 male mice (8-week-old) were daily subjected for three months to a subcutaneous injection of either vehicle (NaCl 0.9%), Dex, CpdX, CpdX(eA), CpdX(eB), CpdX-D3, CpdX-D3(eA) or CpdX-D3(eB) (1 mg/kg body weight, diluted in vehicle). Following these treatments, four organs (thymus, spleen, adrenal gland and kidney) were harvested and weighted.

The test system of data set [4] is Male mice (DBA-1 strain). As to the kind of experiment: Collagen-induced arthritis (CIA). Conditions: for hind paw thickness at the ankle level: i.p. 1 mg/kg daily for 10 days (T0 to T10); for RNA transcripts of the pro-inflammatory genes expressed in the hind paws (IL-1β, IL-6, IL-17a, IL-17f, TNFα): q-RT-PCR, T10, 'but not' = not repressed. The procedure: Mice were treated with collagen to induce a Th17 rheumatoid arthritis-like inflammation as described by Inglis et al. (2007. Arthritis Res Ther. 9(5):R113) and Geboes et al. (2009. Arthritis Rheum. 60(2):390-5).
Male mice (DBA-1 strain) were subcutaneously-injected with 100 μg collagen per mouse on D0. The hind paw thickness at the ankle level was regularly measured with a caliper. When the ankle thickness had reached around 4 mm (T0, i.e., 30 to 50 days after the collagen injection on D0), mice were daily intraperitoneally-injected for 10 days (T0 to T10) with either vehicle (NaCl 0.9%), Dex, CpdX, CpdX(eA), CpdX(eB), CpdX-D3, CpdX-D3(eA) or CpdX-D3(eB) (1 mg/kg body weight diluted in NaCl 0.9%), and the hind paw thickness at the ankle level was daily measured with a caliper. Pictures of the hind paws were taken at days T0 and T10 (before and after the treatment with either Vehicle, Dex, CpdX, CpdX(eA), CpdX(eB), CpdX-D3, CpdX-D3(eA) or CpdX-D3(eB)), in order to assess the course of swelling.
RNA transcripts were extracted from whole hind paws of collagen-untreated and collagen-treated mice at T0 and T10. IL-1β, IL-6, IL-17a, IL-17f and TNFα transcripts were analyzed by q-RT-PCR.

In data set [5] the test system is Balb/C mice. As to the kind of experiment: Ovalbumin (OVA)-induced allergic conjunctivitis. Conditions: 0.1% instillation D22 to D24, 20 minutes after the last OVA challenge. The procedure: To investigate the anti-inflammatory effect of CpdX or CpdX-D3 on an allergic conjunctivitis, Balb/C mice were intraperitoneally sensitized with 50 μg OVA with alum on both days D1 and D8, and then challenged from D15 to D21 with 250 μg OVA in 5 μL of sterilized vehicle (0.9% NaCl), which were directly instilled onto the conjunctival sac. From D22 to D24, mice were divided into several groups, and received instillations with either OVA alone, OVA together with 0.1% of either Dex, CpdX, CpdX(eA), CpdX(eB), CpdX-D3, CpdX-D3(eA) or CpdX-D3(eB).
The clinical appearance of mouse eyes was evaluated 20 minutes after the last instillation on D24. Clinical signs (conjunctival hyperemia, lid edema and tearing) were scored to evaluate the occurrence and severity of conjunctivitis as described by Gimenes et al. (2015. Experimental Eye Research 134:24-32). Parameters were graded on a scale ranging from 0 to 3, (0=absence, 1=mild, 2=moderate, and 3=severe symptoms), each animal receiving a total clinical score ranging from 0 to 9. The data were expressed as mean±SEM with at least four mice per treatment.

Data set [6] relates to B6 male mice. As to the kind of experiment: Corticosterone synthesis and adrenal gland after three-month treatment. Conditions: for plasmatic corticosterone level: at 10 a.m., compared to control mice (Vehicle); for cortex layers, most notably the fasciculata zone, of the adrenal glands / glomerulosa zone of the adrenal cortex / transcripts of Cyp11a, Cyp11b1 and HSD3β genes in adrenal glands: three months; for cortex layers, most notably the fasciculata zone, of the adrenal glands / glomerulosa zone of the adrenal cortex: histology; for glomerulosa zone of the adrenal cortex: 'but not' = not decreased; for transcripts of Cyp11a, Cyp11b1 and HSD3β genes in adrenal glands: q-RT-PCR. The procedure:
B6 male mice (8-week-old) were daily subjected for three months to either a subcutaneous injection of vehicle (NaCl 0.9%), Dex, CpdX, CpdX(eA), CpdX(eB), CpdX-D3, CpdX-D3(eA) or CpdX-D3(eB) (1 mg/kg body weight, diluted in vehicle).
Following this long-term treatment, blood was collected at 10 a.m. and 6 p.m. by retro-orbital puncture in lithium-heparin coated vials, and the plasmatic level of corticosterone was determined. Adrenal glands were harvested and weighted. RNA transcripts were extracted and transcripts of the Cyp11a, Cyp11b1, Cyp11b2 and HSD3β genes were analyzed by q-RT-PCR. Histological analyses of the adrenal glands were also carried out.

The structures appear in SMILES notation.

Take `[2H]C([2H])([2H])Oc1ccc(F)cc1C(C)(C)CC(O)(CNc1ccc2c(c1)COC2=O)C(F)(F)F` (racemic) [CpdX-D3, 5-{4-[2-(methoxy-D3)-5-fluorophenyl]-2-hydroxy-4-methyl-2-(trifluoro-methyl)pentylamino}isobenzofuran-1(3H)-one]: in data set [1], the “pro-inflammatory genes overexpressed in DSS-induced ulcerative colitis (IL-1β, IL-6, IL-17a, IL-17f, TSLP, MMP13)” value (shortened to “pro-inflammatory genes overexpressed”) was “similarly repressed”; the colonic villus/crypt structure result is recorded as “almost reestablished”; the “mucosal and submucosal cell infiltration” value is on record as “significantly decreased”. Also, in data set [2], the insulin resistance result was “does not induce”. Besides, the “phosphorylated insulin receptor substrate 1 (p-IRS1 S318) in liver extracts” value in data set [2] (western-blot, 'but not' = no decrease) is on record as “but not”. Also, in data set [3], the spleen weight entry is “not decreased”, the “thymus apoptosis / thymus found” value is on record as “did not result in any significant thymus apoptosis” and the “weight of the adrenal gland” value is given as “increased”. In data set [4], the “hind paw thickness at the ankle level” value is reported as “rapid decrease” and the “RNA transcripts of the pro-inflammatory genes expressed in the hind paws (IL-1β, IL-6, IL-17a, IL-17f, TNFα)” value (from here on “RNA transcripts”) is “similarly repressed”. In addition, the “hind paw thickness, difference compared to the Dex treatment” value in data set [4] (student t test, FIG. 17 legend) is “not significant”. Further, the “clinical signs of allergic conjunctivitis (conjunctival hyperemia, lid edema and tearing)” value (from here on “clinical signs”) in data set [5] is listed as “considerably reduced”. In addition, in data set [6], the plasmatic corticosterone level entry is reported as “much higher”; the “cortex layers, most notably the fasciculata zone, of the adrenal glands” value (“cortex layers” for short) is listed as “markedly increased”; the “glomerulosa zone of the adrenal cortex” value was “but not”; the “transcripts of Cyp11a, Cyp11b1 and HSD3β genes in adrenal glands” value (shortened to “transcripts of Cyp11a”) is “increased”.
In the case of `COc1ccc(F)cc1C(C)(C)CC(O)(CNc1ccc2c(c1)COC2=O)C(F)(F)F` (single isomer, unassigned) [CpdX(eB), 5-[4-(5-fluoro-2-methoxyphenyl)-2-hydroxy-4-methyl-2-(trifluoromethyl)pentylamino]-isobenzofuran-1(3H)-one], in data set [1], the “pro-inflammatory genes overexpressed” value was “similarly repressed”; the colonic villus/crypt structure entry was “almost reestablished”; the “mucosal and submucosal cell infiltration” value is “significantly decreased”. Besides, the insulin resistance entry in data set [2] is recorded as “does not induce”. Besides, in data set [3], the spleen weight result is given as “not decreased”, the “thymus apoptosis / thymus found” value is recorded as “did not result in any significant thymus apoptosis” and the “weight of the adrenal gland” value is “increased”. Besides, the “hind paw thickness at the ankle level” value in data set [4] (1 mg/kg) is recorded as “no such decrease”. For the same compound, the “clinical signs” value in data set [5] is “considerably reduced”. Also, in data set [6], the plasmatic corticosterone level entry is reported as “much higher”; the “cortex layers” value is reported as “markedly increased”; the “glomerulosa zone of the adrenal cortex” value is “but not”; the “transcripts of Cyp11a” value is on record as “increased”.
As to `[2H]C([2H])([2H])Oc1ccc(F)cc1C(C)(C)CC(O)(CNc1ccc2c(c1)COC2=O)C(F)(F)F` (stereo not shown) [CpdX-D3(eA), 5-{4-[2-(methoxy-D3)-5-fluorophenyl]-2-hydroxy-4-methyl-2-(trifluoromethyl)pentylamino}isobenzofuran-1(3H)-one], in data set [1], the “pro-inflammatory genes overexpressed” value is given as “similarly repressed”; the colonic villus/crypt structure result is on record as “almost reestablished”; the “mucosal and submucosal cell infiltration” value is listed as “significantly decreased”. The insulin resistance entry in data set [2] is given as “does not induce”. In data set [3], the spleen weight result is “not decreased”, the “thymus apoptosis / thymus found” value is listed as “did not result in any significant thymus apoptosis” and the “weight of the adrenal gland” value is “increased”. For the same compound, the “RNA transcripts” value in data set [4] is on record as “similarly repressed”. Further, in data set [5], the “clinical signs” value is on record as “considerably reduced”. For the same compound, in data set [6], the plasmatic corticosterone level result is reported as “much higher”; the “cortex layers” value was “markedly increased”; the “glomerulosa zone of the adrenal cortex” value is “but not”; the “transcripts of Cyp11a” value was “increased”.
Take `COc1ccc(F)cc1C(C)(C)CC(O)(CNc1ccc2c(c1)COC2=O)C(F)(F)F` (single isomer, unassigned) [CpdX(eA), 5-[4-(5-fluoro-2-methoxyphenyl)-2-hydroxy-4-methyl-2-(trifluoromethyl)pentylamino]-isobenzofuran-1(3H)-one]: in data set [1], the “pro-inflammatory genes overexpressed” value is “similarly repressed”; the colonic villus/crypt structure entry was “almost reestablished”; the “mucosal and submucosal cell infiltration” value is reported as “significantly decreased”. In addition, the insulin resistance result in data set [2] is listed as “does not induce”. For the same compound, in data set [3], the spleen weight entry was “not decreased”, the “thymus apoptosis / thymus found” value is recorded as “did not result in any significant thymus apoptosis” and the “weight of the adrenal gland” value was “increased”. Also, the “RNA transcripts” value in data set [4] was “similarly repressed”. Besides, the “clinical signs” value in data set [5] is reported as “considerably reduced”. For the same compound, in data set [6], the plasmatic corticosterone level entry is listed as “much higher”; the “cortex layers” value is “markedly increased”; the “glomerulosa zone of the adrenal cortex” value is “but not”; the “transcripts of Cyp11a” value was “increased”.

These data come from patent US20190151283A1, “NON-STEROIDAL SELECTIVE GLUCOCORTICOID RECEPTOR AGONISTIC MODULATORS (SEGRAMs) AND USES THEREOF” (ASSOCIATION POUR LA RECHERCHE À L'IGBMC (ARI), priority 2017, published 2019).
